Measured values reported in patent US10201558B2, “Compositions of selenoorganic compounds and methods of use thereof” (Alltech, Inc., priority 2014, dated 2019).

Test system: primary fetal rat neurons
Assay: Cell survival of primary cortical neurons (cell counts)
Type: cell-based
Settings: 24 hours, Control 100 ± 1.57, mixture: 30 ppb of the element from each compound; for Viable Cell Number (Mean + SEM, n = 6): 150 ppb sulfur compound(s); for Viable Cell Number (Mean ± SEM, n = 6): 150 ppb selenium compound(s)
Method: For primary neurons, dissociated primary cortical neuron cultures were established from E-18 rat embryos as previously described (Lovell et al., Free Radic. Biol. Med. 2000; Lovell et al., Neurobiol. Aging 2001). Studies were carried out on cells 7 days in culture by switching to Locke's solution consisting of 1 mL of 154 mM NaCl, 5.6 mM KCl, 2.3 mM CaCl2, 1.0 mM MgCl2, 3.6 mM NaHCO3, 10 mM glucose, 5 mM HEPES (pH 7.2) with 10 mg/L gentamicin sulfate. Primary neurons were treated for 24 hours in Locke's solution with the indicated selenium and sulfur compounds in Table 5. Cell counts were performed to measure cell survival/toxicity.
The effects of the selenium and sulfur compounds, identified as components of water extracts of selenium-enriched yeast, on neuronal cell survival was also tested. Primary neurons isolated from fetal rat brain were incubated with chemically synthesized individual selenium and sulfur compounds that were identified as components of water extracts of selenium-enriched yeast (Table 5). In this case, the elemental concentration of each compound identified in Table 5 was 150 ppb and, where mixtures were used, the 150 ppb treatment was made up of 30 ppb of the element from each of the five compounds in question.

Row | SMILES | Viable Cell Number (Mean + SEM, n = 6) | Viable Cell Number (Mean ± SEM, n = 6)
1 | CSC[C@H]1O[C@@H](n2cnc3c(N)ncnc32)[C@H](O)[C@@H]1O [Compound H, 5′-deoxy-5′-methylthioadenosine] | 100.24 ± 9.45 | –
2 | CSC[C@H](N)C(=O)O [F, L-Methylcysteine] | 96.48 ± 3.89 | –
3 | C[Se]CC[C@H](N)C(=O)O [B, L-Selenomethionine] | – | 90.59 ± 6.82
4 | CSCC[C@H](N)C(=O)O [G, L-methionine] | 103.84 ± 4.98 | –
5 | C[Se]C[C@H](N)C(=O)O [A, L-Methylselenocysteine] | – | 94.45 ± 1.72
